The nature of data set [1]: radioactive isotope elimination-increasing effect, isotope into abdominal cavity, whole-body retention. It counts as in vivo, Swiss mice. The settings on record: for EI value: effectivity (isotope elimination as % related to control) multiplied by LD50/30, 0-5 weak, 5-50 medium, 50-100 good, above 100 excellent; for F factor: multiplication of isotope elimination relative to untreated animals, i.v. 50 to 100 μmol/kg, 30 to 60 minutes after isotope; for radioactivity excreted from the animal organism within 1 day / radioactivity excreted from the animal organism within 4 days / radioactivity excreted from the animal organism within 7 days: Sr-85 into abdominal cavity, single treatment, 100 μmol/kg (stated for Example 13); for radioactivity excreted from the animal organism within 1 day: control 15%; for radioactivity excreted from the animal organism within 4 days: control 25%; for radioactivity excreted from the animal organism within 7 days: control 30%. An excerpt: The action of the compounds of formula (I) according to the invention, which manifests itself as an increase in the elimination of metal ions damaging the living organism, was investigated by using radioactive strontium or cerium ions on Swiss mice and Wistar rats of both sexes.
The elimination was studied on radioactive isotopes introduced in various routes to various sites, e.g. to the blood circulation, abdominal cavity, lungs, muscles or subcutaneous connective tissue of the experimental animals. The compound increasing the elimination of the isotopes was administered daily once or two times in the form of an injection, powder or liquid aerosol or plaster to the organism of the experimental animals. Thereafter, whole body activity measurements were performed and retention curves were taken up which then were compared to the results obtained in the control group.
The retention curves obtained were analysed on a computer. "Nonlinear Regression by the Code of BMDP-3R" (BMDP Statistical Software Manual, UCLA, Los Angeles, 1990, Chief Ed. W. J. Dixon) computer software was used for this purpose. It could be stated from the results obtained that the curves could be described by a two-component descending exponential function. Two data were calculated for characterizing the effectivity. One of these was the so-called F factor indicating the increase in the elimination in relation to the control and meaning the multiplication of the isotope elimination under effect of the test compound in relation to the untreated animals/see column (C) in Table 1/.
For the illustrative comparison of the compounds according to the invention additional characteristic data, the so-called EI values are given which were obtained by multiplying the extent of isotope elimination as percentage related to the control group (effectivity, E) with the acute toxicity value (LD50/30, innocuous, I)/see column (D) in Table 1/. Although the EI value is numerically not identical to the therapeutic ratio (safety index), it indicates in all cases to a weak or excellent activity of a product.
The radioactive isotope elimination-increasing effects of compounds prepared according to Examples 1 to 16 were compared on Swiss mice as described hereinafter.
An activity of 37 to 74 kBg (1 to 2 μCi) of radioactive strontium (Sr-85Cl2) or radioactive cerium (Ce-144Cl3), respectively, was administered into the abdominal cavity of the animals which were then divided into treatment groups consisting of 5 to 10 animals each. At 30 to 60 minutes after administration of the isotope, the animals of the treated groups were intravenously (i.v.) given the active agent used in an amount to achieve s concentration of 50 to 100 μmol/kg of body-weight in the animal organism for each treatment. The animals of the control groups were similarly treated with the carrier (sterile physiological saline or glucose solution of 5% by weight concentration) without active agent.
The amount of radioactivity introduced to the animal organism was determined immediately after administration of the isotope, thru these measurements were repeated daily or in every two the or three days in a device constructed for the purpose of the whole-body measurements on small animals. The counts observed were related to the starting activity value of the zero (0) day and a so-called retention/time correlation was obtained by considering the activity retained in the organism. The change of activity of the animal organism in the time is illustrated in FIG. 1 where the time (in days) elapsed after the treatment is shown on the abscissa and the whole-body retention as percentage is plotted on the ordinate. It can be seen that the rate of elimination of Sr-85 administered into the abdominal cavity of control animals was slow: within 1 day only 15%, within 4 days 25% and within 7 days 30% of the activity were eliminated from their organism and the elimination was even more delayed in the later period. […]

A short description of data set [2]: acute toxicity, LD50/30, injection into blood circulation, 30 days observation. The data set is classed as in vivo, Swiss mice and Wistar rats. Particulars: in vivo, iv; dose causing death of 50% of animals within 30 days; slow injection into the blood circulation during 3 to 5 minutes; mice and rats; probit analysis. The method, then:
(§1) The acute toxicity values of the products prepared according to Examples 1 to 16 were determined on laboratory mice and rats in the following manner.
(§2) Solutions containing the compounds in various concentrations were prepared by using physiological saline solution or glucose solution of 5% by weight concentration and the active agents were administered in various concentrations into the blood circulation of the animals by injecting them slowly during 3 to 5 minutes. Groups consisting of 6 to 10 animals (Swiss mice and Wistar rats of both sexes) each were used for the various dose levels. […] The LD50/30 value (i.e. the dose causing the death of 50% of the experimental animals within 30 days) was determined from the number of animals died during this period by using probit analysis/D. J. Finney: Probit Analysis (2nd ed.) Cambridge University Press (1952)/. These values expressed in mmol/kg of body-weight for the active agents according to the invention are summarized in column (B) of Table 1.

A further data set relates to laboratory mice and rats. The data set is described as above. The data set is classed as in vivo, Swiss mice and Wistar rats. The settings on record: dose causing death of 50% of animals within 30 days, slow injection into the blood circulation during 3 to 5 minutes, mice and rats, probit analysis. The method, then: as §1, §2

From US5440031A, “1,4,10,13-tetraoxa-7,16-diazacyclooctadecane derivatives, pharmaceutical compositions containing them and their use for the removal of toxic metal ions and radioactive isotopes from living organism” (priority 1990, dated 1995) come the findings set out here.

Where a name gives a salt, the structure may show the parent alone.

Consider `O=C([O-])C(C(=O)[O-])N1CCOCCOCCN(C(C(=O)[O-])C(=O)O)CCOCCOCC1.[Na+].[Na+].[Na+]` [Example 11, N,N'-bis(dicarboxymethyl)-1,4,10,13-tetraoxa-7,16-diazacyclooctadecane trisodium salt], for which, in data set [1], the EI value was 2.90 and the F factor is listed as 2.6. In addition, the LD50 (as a rule, the dose expected to kill half of the subjects tested) at 720 h in data set [2] was found to be 111 µmol/kg.
On the same counts, the results for `CC(C(=O)O)(C(=O)O)N1CCOCCOCCN(C(C)(C(=O)O)C(=O)O)CCOCCOCC1` [Example 15, N,N'-bis(1,1'-dicarboxyethyl)-1,4,10,13-tetraoxa-7,16-diazacyclooctadecanetetrasodium salt] are 6.80, 1.3 and 450 µmol/kg.
Take `O=C([O-])C(C(=O)[O-])N1CCOCCOCCN(C(C(=O)[O-])C(=O)[O-])CCOCCOCC1.[Mg+2].[Na+].[Na+]` [Example 4, N,N'-bis(dicarboxymethyl)-1,4,10,13-tetraoxa-7,16-diazacyclooctadecane magnesium complex disodium salt]: in data set [1], the EI value stood at 7.30 and the F factor came to 2.3. The “Acute toxicity LD50/30” value in the data set with laboratory mice and rats came out at 0.211 mmol/kg.
For `CC(C(=O)[O-])(C(=O)[O-])N1CCOCCOCCN(C(C(=O)[O-])C(=O)[O-])CCOCCOCC1.[Na+].[Na+].[Na+].[Na+]` [Example 12, N-dicarboxymethyl-N'-(1,1'-dicarboxyethyl)-1,4,10,13-tetraoxa-7,16-diazacyclooctadecane tetrasodium salt], in data set [1], the EI value is on record as 7.90 and the F factor is given as 1.5. In data set [2], the LD50 at 720 h was found to be 305 µmol/kg.
As for `O=C([O-])C(C(=O)[O-])N1CCOCCOCCN(C(C(=O)[O-])C(=O)[O-])CCOCCOCC1.[Na+].[Na+].[Na+].[Na+]` [1/b, N,N'-bis(dicarboxymethyl)-1,4,10,13-tetraoxa-7,16-diazacyclooctadecane tetrasodium salt], in data set [1], the EI value worked out at 9.66 and the F factor stood at 2.8. Moreover, the “Acute toxicity LD50/30” value in the data set with laboratory mice and rats (43200 min) is recorded as 0.379 mmol/kg.
With “N,N'-bis(dicarboxymethyl)-1,4,10,13-tetraoxa-7,16-diazacyclooctadeoane calcium complex disodium salt containing sodium chloride [Example 5]”, in data set [1], the “radioactivity excreted from the animal organism within 1 day” value is given as 81%, the “radioactivity excreted from the animal organism within 4 days” value amounted to 84%, the “radioactivity excreted from the animal organism within 7 days” value is 85% and the EI value is 145.00. In addition, the F factor in data set [1] came to 3.7. Further, the “Acute toxicity LD50/30” value with laboratory mice and rats was “above 2.5 mmol/kg”.
Consider `N.N.O=C([O-])C(C(=O)[O-])N1CCOCCOCCN(C(C(=O)O)C(=O)O)CCOCCOCC1.[Ca+2]` [Example 7, N,N'-bis(dicarboxymethyl)-1,4,10,13-tetraoxa-7,16-diazacyclooctadecane calcium complex diammonium], for which, in data set [1], the EI value is 65.00 and the F factor is 1.7. Also, the “Acute toxicity LD50/30” value in the data set on laboratory mice and rats was “above 2.5 mmol/kg”.
In the case of “N,N'-bis(dicarboxymethyl)-1,4,10,13-tetraoxa-7,16-diazacyclooctadecane iron(II) complex disodium salt [Example 9]”, in data set [1], the EI value was 8.25 and the F factor worked out at 1.7. In addition, the “Acute toxicity LD50/30” value in the data set on laboratory mice and rats was found to be 0.250 mmol/kg.
On the same counts, the results for `O=C([O-])C(C(=O)[O-])N1CCOCCOCCN(C(C(=O)[O-])C(=O)[O-])CCOCCOCC1.[Ca+2].[Ca+2]` [Example 8, N,N'-bis(dicarboxymethyl)-1,4,10,13-tetraoxa-7,16-diazacyclooctadecane calcium complex calcium salt] are 58.00, 1.6 and “above 1.5 mmol/kg”.
Regarding `O=C([O-])C(C(=O)[O-])N1CCOCCOCCN(C(C(=O)[O-])C(=O)[O-])CCOCCOCC1.[Na+].[Na+].[Na+].[Na+]` [1/a, N,N'-bis(dicarboxymethyl)-1,4,10,13-tetraoxa-7,16-diazacyclooctadecane tetrasodium salt], in data set [1], the EI value came to 5.40 and the F factor worked out at 1.8. In data set [2], this compound returned an LD50 at 720 h of 327 µmol/kg.
With `O=C([O-])C(C(=O)[O-])N1CCOCCOCCN(C(C(=O)[O-])C(=O)[O-])CCOCCOCC1.[Na+].[Na+].[Zn+2]` [Example 10, N,N'-bis(dicarboxymethyl)-1,4,10,13-tetraoxa-7,16-diazacyclooctadecane zinc complex disodium salt], in data set [1], the EI value is 3.20 and the F factor worked out at 2.3. In addition, the “Acute toxicity LD50/30” value in the data set on laboratory mice and rats was determined as 0.091 mmol/kg.
Take `CCC(C(=O)O)(C(=O)O)N1CCOCCOCCN(C(C(=O)O)C(=O)O)CCOCCOCC1` [Example 13, N-dicarboxymethyl-N'-(1,1'-dicarboxypropyl)-1,4,10,13-tetraoxa-7,16-diazacyclooctadecane tetrasodium salt sodium bromide double salt]: in data set [1], the “radioactivity excreted from the animal organism within 1 day” value stood at 40%, the “radioactivity excreted from the animal organism within 4 days” value turned out to be 65%, the “radioactivity excreted from the animal organism within 7 days” value worked out at 67% and the EI value was 13.30. In addition, in data set [1], the F factor is 2.1. The LD50 at 720 h in data set [2] was determined as 302 µmol/kg.
With “N,N'-bis(dicarboxymethyl)-1,4,10,13-tetraoxa-7,16-diazacyclooctadecane calcium complex disodium salt containing disodium hydroxymalonate and sodium chloride [6/a]”, in data set [1], the EI value is 158.00 and the F factor was found to be 3.9. Also, the “Acute toxicity LD50/30” value in the data set on laboratory mice and rats is “above 3.0 mmol/kg”.
In the case of `O=C([O-])C(C(=O)[O-])N1CCOCCOCCN(C(C(=O)[O-])C(=O)[O-])CCOCCOCC1.[K+].[K+].[K+].[K+]` [3/a, N,N'-bis(dicarboxymethyl)-1,4,10,13-tetraoxa-7,16-diazacyclooctadecane tetrapotassium salt], in data set [1], the EI value is 12.30 and the F factor is 2.3. For the same compound, the LD50 at 720 h in data set [2] was 333 µmol/kg.
As for `O=C([O-])C(C(=O)[O-])N1CCOCCOCCN(C(C(=O)[O-])C(=O)[O-])CCOCCOCC1.[K+].[K+].[K+].[K+]` [3/b, N,N'-bis(dicarboxymethyl)-1,4,10,13-tetraoxa-7,16-diazacyclooctadecane tetrapotassium salt], in data set [1], the EI value was 8.90 and the F factor came to 1.7. In the data set with laboratory mice and rats (43200 min), the “Acute toxicity LD50/30” value is recorded as 0.272 mmol/kg.
